# Assay results published in publication PMC8666671, “Fine-tuning spermidine binding modes in the putrescine binding protein PotF” (The Journal of Biological Chemistry, 2021).
# Where a chain is given by its changes, count along the chain named. Where “and” joins values, the source holds several entries; their conditions need not be identical. Equal values may be shown once.
# Columns and labels:
# PotF/D–E39D–F88A = target: T1, PotF/D–E39D–F88A (Escherichia coli, UniProt P31133, A182D/D247S/F276W/F88A/L348Q/S38T/S87Y); test: ITC, PotF/D–E39D–F88A; format: binding; settings: 293 K
# T1 construct: without the N-terminal signal peptide; made in house; host or cells: E. coli BL21 (DE3)
# T1 sequence (P31133 27-370 S38T/S87Y/F88A/A182D/D247S/F276W/L348Q): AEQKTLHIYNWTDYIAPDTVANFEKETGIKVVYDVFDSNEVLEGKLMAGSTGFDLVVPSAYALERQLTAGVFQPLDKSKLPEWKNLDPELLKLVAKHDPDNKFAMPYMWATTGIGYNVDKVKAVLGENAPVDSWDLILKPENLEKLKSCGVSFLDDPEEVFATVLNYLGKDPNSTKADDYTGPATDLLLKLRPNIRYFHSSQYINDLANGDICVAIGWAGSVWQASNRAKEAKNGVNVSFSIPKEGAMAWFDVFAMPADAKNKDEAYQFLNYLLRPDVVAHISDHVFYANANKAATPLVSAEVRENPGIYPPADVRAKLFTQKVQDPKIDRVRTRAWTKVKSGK
# Procedure: (§1) Ligands were always freshly prepared in the exact same buffer as was used for the size exclusion run. Samples were degassed, and temperature was equilibrated using a degassing station (TA Instruments). About 400 μl protein sample of different concentrations (Table S5) depending on affinity was transferred into the sample cell of a nanoITC (TA Instruments), and 50 μl of about tenfold concentrated ligand solution was loaded into the injection needle. Multiple injection measurements were carried out at 293 K, 300 rpm stirring rate, and 250 s spacings between each 2 μl injection. The heat quantity past injection was determined by integration of the measured peaks. Every protein–ligand combination was measured as biological triplicate. Subtraction of heat of dilution measurements, peak integration, and one site binding fits were done with NanoAnalyze (TA Instruments). Reported errors are the errors between fits of the measured triplicates.
# PotD = settings: cited from earlier work
# PotF/D = target: T2, PotF/D (Escherichia coli, UniProt P31133, A182D/D247S/D39E/F276W/L348Q/S38T/S87Y); test: ITC, PotF/D (PotF_SPD; seven PotD binding pocket residues grafted onto PotF); settings: 293 K
# T2 construct: without the N-terminal signal peptide; made in house; host or cells: E. coli BL21 (DE3)
# T2 sequence (P31133 27-370 S38T/D39E/S87Y/A182D/D247S/F276W/L348Q): T1 sequence (P31133 27-370 S38T/S87Y/F88A/A182D/D247S/F276W/L348Q) with D13E, A62F
# Procedure: as §1
# [1] = ITC, 50 mM Tris pH 8, 300 mM NaCl, biological triplicates
compound,measurement,setting,value
"NCCCCNCCCN [SPD, spermidine]",n,PotF/D–E39D–F88A; ITC binding stoichiometry,0.98 ± 0.03
same,ΔG,PotF/D–E39D–F88A; ITC,-6.73 ± 0.03 kcal/mol
same,ΔH,PotF/D–E39D–F88A; ITC,-12.22 ± 0.35 kcal/mol
same,−TΔS,PotF/D–E39D–F88A; ITC,5.49 ± 0.36 kcal/mol
same,Kd,PotF/D–E39D–F88A; [1],9.6 ± 0.54 µM
same,ΔG,PotD; ITC,-11.13 ± 0.12 kcal/mol
same,ΔH,PotD; ITC,-16.40 ± 1.4 kcal/mol
same,−TΔS,PotD; ITC,5.24 ± 1.39 kcal/mol
same,Kd,PotD,~0.006 µM
same,n,PotF/D; ITC binding stoichiometry,0.94 ± 0.02
same,ΔG,PotF/D; ITC,-5.94 ± 0.04 kcal/mol
same,ΔH,PotF/D; ITC,-9.30 ± 0.20 kcal/mol
same,−TΔS,PotF/D; ITC,3.36 ± 0.24 kcal/mol
same,Kd,PotF/D; [1],~37 µM and 37.3 µM
